Assay results as given in patent EP2963029A1, “Cyclic derivatives of epoxyisoprostanoids as therapeutic agents” (ETH Zurich, priority 2014, dated 2016).
Like-named read-outs stand apart in the source and are kept apart here.

Tests used:
naïve CD4 T cells = assay: Co-culture of compound-pretreated splenic dendritic cells with naive CD4 T cells; Th1/Th2 polarization by intracellular FACS staining; assay type: cell-based, C57BL/6 mice
Nrf2 target genes = assay: qPCR expression of Nrf2 target genes in pretreated, R837-stimulated bone marrow-derived dendritic cells; assay type: cell-based, mouse
Source text: (§1) • Figure 1: Treatment with cyclo-EC (9) licenses dendritic cells to polarize niave CD4 T cells towards the Th2 subset. Naïve transgenic splenic CD4 T cells were co-cultured together with splenic dendritic cells that had been pre-treated either with cyclo-EC (9) (cEC) or the respective solvent control. CD4 T cells were then stimulated with the cognate antigen for 4 days. […] Shown is the percentage of IL-4 producing Th2 and IFNγ producing Th1 cells after treatment with cEC or solvent DMSO. Differences between cEC and DMSO treatments are significant as indicated by (*) using unpaired, two-tailed t tests. […] Wild type bone marrow-derived dendritic cells were pretreated with cyclo-EC (9) (cEC) or solvent control for 75 minutes before stimulation with the TLR7 (toll-like receptor 7) ligand R837 (Syed, T. A., Exp.Opin.Pharmacother. 2001, 2, 877) for an additional 3 h. Cells were then lysed, mRNA was purified, reverse transcribed and expression of Nrf2 ([…]) target genes as well as the indicated chemokine genes was determined by qPCR. Expression levels were normalized to G6PDH (glucose 6-phosphate dehydrogenase) expression. […] Cytokines in the supernatant were quantified with ELISA. • Figure 4. […] Cytokines in the supernatant were quantified with ELISA. • Figure 5. […]

IL-6 [1] = assay: IL-6 secretion by bone marrow-derived dendritic cells stimulated with TLR7 agonist R837 (ELISA); assay type: cell-based, mouse; details: BMDCs treated 60 minutes, then R837 for 18 h (Figures 3-5)
Source text: as §1, with “qPCR.” for “qPCR. Expression levels were normalized to G6PDH (glucose 6-phosphate dehydrogenase) expression.”
(§2) Bone marrow cells from tibia and femur were isolated ex vivo and differentiated in vitro into bone marrow derived dendritic cells (BMDC) by cultivation in the presence of 2 ng/ml carrier free recombinant mouse GM-CSF (BioLegend, 576308) in RPMI 1640 medium (GE Healthcare, E15-039) supplemented with L-glutamine (Lonza-Cambrex BioWhittaker, BE17-605E), HEPES Buffer (Lonza-Cambrex BioWhittaker, BE17-737E), peniciline/ streptomycine (Gibco Life Technologies 15140-122) and fetal bovine serum (Gibco Life Sciences 10270-106). […] Cells were then harvested, counted and seeded into 96-well flat bottom plates at 10^5 cells/well. […] Cytokine concentrations in supernatant were quantified by sandwich ELISA using the following antibody pairs: IL-6 (504502 and 504602) from BioLegend and IL-12 (14-7125-85 and 13-7123-85) from eBioscience. […] Optical density was measured using a Spectra MAX 190 device by Bucher biotec. […]

IL-12 [2] = assay: IL-12 secretion by bone marrow-derived dendritic cells stimulated with TLR7 agonist R837 (ELISA); assay type: cell-based, mouse; details: BMDCs treated 60 minutes, then R837 for 18 h (Figures 3-5)
Source text: as §1, with “qPCR.” for “qPCR. Expression levels were normalized to G6PDH (glucose 6-phosphate dehydrogenase) expression.”
as §2

IL-6 [3] = details: bone-marrow derived dendritic cells, Egger et al., Angew. Chem. Int. Ed. 2013, cited from earlier work
IL-12 [4] = details: bone-marrow derived dendritic cells, Egger et al., Angew. Chem. Int. Ed. 2013, cited from earlier work
[5] = test system: Pro-inflammatory chemokine genes: CCL1, 2, 3 and 4; assay: qPCR expression of pro-inflammatory chemokine genes in pretreated, R837-stimulated bone marrow-derived dendritic cells; assay type: cell-based, mouse; details: pretreated 75 minutes, then R837 for 3 h; normalized to G6PDH (Figure 2)
Source text: as §1

| SMILES | polarization of naïve CD4 T cells towards the Th2 subset (naïve CD4 T cells; earlier experiments, splenic dendritic cells) | expression of downstream targets of Nrf2 (Nrf2 target genes; earlier experiments, quantitative PCR) | inhibition of IL-6 secretion (IL-6 [1]) | inhibition of IL-12 secretion (IL-12 [2]) | secretion of pro-inflammatory cytokine IL-6 (IL-6 [3]) | secretion of pro-inflammatory cytokine IL-6 (IL-6 [3]; listed as 8) | secretion of pro-inflammatory cytokine IL-12 (IL-12 [4]) | secretion of pro-inflammatory cytokine IL-12 (IL-12 [4]; listed as 8) | percentage of IFNγ producing Th1 cells (naïve CD4 T cells; dendritic cells treated with 500nM for 60 minutes, co-culture 4 days with 10 nM gp61, vs solvent DMSO, p = 0.0161 (Figure 1)) | percentage of IL-4 producing Th2 cells (naïve CD4 T cells; dendritic cells treated with 500nM for 60 minutes, co-culture 4 days with 10 nM gp61, vs solvent DMSO, p = 0.039 (Figure 1)) | expression of Nrf2 target genes (HO-1, NQO1) (Nrf2 target genes; pretreated 75 minutes, then R837 for 3 h, normalized to G6PDH (Figure 2)) | pro-inflammatory chemokine expression (CCL1, 2, 3 and 4) [5] | inhibition of IL-6 secretion (IL-6 [1]; listed as cEC) | inhibition of IL-12 secretion (IL-12 [2]; listed as cEC) |
| --- | --- | --- | --- | --- | --- | --- | --- | --- | --- | --- | --- | --- | --- | --- |
| CCCCC/C=C\C[C@H]1C=CC(=O)/C1=C/[C@H]1O[C@@H]1CCCC(=O)O [EC (8), 4-((2R,3R)-3-((E)-((S)-2-((Z)-Oct-2-en-1-yl)-5-oxocyclopent-3-en-1-ylidene)-methyl)oxiran-2-yl)butanoic acid] | able to license splenic dendritic cells to polarize naïve CD4 T cells towards the Th2 subset | able to drive expression of downstream targets of Nrf2 | potent inhibitor of toll-like receptor 7 (TLR) mediated secretion of pro-inflammatory cytokines | potent inhibitor of toll-like receptor 7 (TLR) mediated secretion of pro-inflammatory cytokines | more potent than EI (19) | reduced secretion | more potent than EI (19) | reduced secretion | – | – | – | – | – | – |
| CCCCC/C=C\C[C@@H]1/C(=C\[C@H]2O[C@@H]2CCCC(=O)O)C(=O)C[C@H]1O [EI (19), 5,6-epoxyisoprostane E2] | – | – | – | – | reduced secretion | – | reduced secretion | – | – | – | – | – | – | – |
| CCCCC/C=C\C[C@H]1C=CC(=O)/C1=C/[C@@H](O)[C@@H]1CCCC(=O)O1 [cyclo-EC (9), (S)-6-((R,E)-1-Hydroxy-2-((S)-2-((Z)-oct-2-en-1-yl)-5-oxocyclopent-3-en-1-liydene)-ethyl)tetrahydro-2H-pyran-2-one] | – | – | most potent inhibitor of IL-6 and IL-12 secretion | most potent inhibitor of IL-6 and IL-12 secretion | – | – | – | – | interferes with high dose antigen induced polarization towards the Th1 subset | licenses the dendritic cells to promote polarization of the Th2 subset | induces expression of Nrf2 target genes | inhibits pro-inflammatory chemokine expression | attenuates secretion of pro-inflammatory cytokines at lower concentrations than EC | attenuates secretion of pro-inflammatory cytokines at lower concentrations than EC |
